From ChEMBL document CHEMBL1649074, “Aurora kinase inhibitors based on the imidazo[1,2-a]pyrazine core: fluorine and deuterium incorporation improve oral absorption and exposure” (J Med Chem, 2011)
pIC50: −log10 of the molar value.

Tests used:
[1] = Plasma clearance in rat; format: ADME, organism-based
[2] = biological target: Rho-associated protein kinase 2 (Homo sapiens, UniProt O75116); assay: Inhibition of ROCK2
[3] = AUC (0 to 24 hrs) in Sprague-Dawley rat at 30 mg/kg, po; format: ADME, organism-based; parameters: time < 24 hr, dose 30 mg/kg, route oral; details: plasma
[4] = biological target: T1, Receptor-type tyrosine-protein kinase FLT3 (Homo sapiens, UniProt P36888); assay: Inhibition of FLT3
T1 sequence (P36888 whole entry): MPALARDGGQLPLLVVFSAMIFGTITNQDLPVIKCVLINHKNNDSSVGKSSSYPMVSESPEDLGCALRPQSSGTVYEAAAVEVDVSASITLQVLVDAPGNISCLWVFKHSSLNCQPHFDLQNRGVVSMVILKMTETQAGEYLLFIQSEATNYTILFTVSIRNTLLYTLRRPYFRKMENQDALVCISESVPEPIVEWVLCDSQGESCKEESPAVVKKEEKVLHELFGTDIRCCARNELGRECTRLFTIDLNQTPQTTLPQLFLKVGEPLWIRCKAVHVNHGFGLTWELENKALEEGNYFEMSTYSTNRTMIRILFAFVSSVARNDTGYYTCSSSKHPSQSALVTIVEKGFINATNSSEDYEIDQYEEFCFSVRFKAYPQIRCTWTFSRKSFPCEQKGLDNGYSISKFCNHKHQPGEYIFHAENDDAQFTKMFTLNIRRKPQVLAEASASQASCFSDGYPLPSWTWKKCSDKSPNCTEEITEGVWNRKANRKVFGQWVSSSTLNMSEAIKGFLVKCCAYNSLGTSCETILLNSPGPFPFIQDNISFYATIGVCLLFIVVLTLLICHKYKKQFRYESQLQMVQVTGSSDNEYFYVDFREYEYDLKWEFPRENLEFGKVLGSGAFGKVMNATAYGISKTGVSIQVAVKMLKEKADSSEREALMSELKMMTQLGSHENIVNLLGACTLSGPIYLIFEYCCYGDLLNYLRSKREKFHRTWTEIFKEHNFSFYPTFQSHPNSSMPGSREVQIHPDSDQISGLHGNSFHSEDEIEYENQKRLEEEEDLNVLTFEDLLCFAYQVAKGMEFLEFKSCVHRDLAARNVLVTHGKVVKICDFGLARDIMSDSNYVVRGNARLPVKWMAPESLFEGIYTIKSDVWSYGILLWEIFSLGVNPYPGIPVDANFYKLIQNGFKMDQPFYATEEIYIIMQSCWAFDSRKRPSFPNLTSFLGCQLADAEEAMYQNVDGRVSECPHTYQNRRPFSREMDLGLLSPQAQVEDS

[5] = biological target: Insulin-like growth factor 1 receptor (Homo sapiens, UniProt P08069); assay: Inhibition of IGF1R
[6] = AUC (0 to 24 hrs) in CD1 mouse at 50 mg/kg, po; format: ADME, organism-based; parameters: time < 24 hr, dose 50 mg/kg, route oral; details: plasma
Aurora kinase A = biological target: T2, Aurora kinase A (Homo sapiens, UniProt O14965); assay: Inhibition of Aurora A
T2 sequence (O14965 whole entry): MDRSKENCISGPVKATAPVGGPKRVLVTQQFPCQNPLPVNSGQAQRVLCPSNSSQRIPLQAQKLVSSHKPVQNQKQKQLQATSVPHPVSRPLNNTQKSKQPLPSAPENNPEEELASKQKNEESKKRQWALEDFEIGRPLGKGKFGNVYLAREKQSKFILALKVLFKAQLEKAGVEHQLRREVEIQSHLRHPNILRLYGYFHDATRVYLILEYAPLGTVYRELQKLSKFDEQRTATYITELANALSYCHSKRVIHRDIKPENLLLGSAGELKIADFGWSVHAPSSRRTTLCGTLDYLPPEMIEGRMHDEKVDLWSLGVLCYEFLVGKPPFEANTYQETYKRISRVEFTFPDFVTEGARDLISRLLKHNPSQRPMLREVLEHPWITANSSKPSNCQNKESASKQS

[7] = biological target: T3, Testis-specific serine/threonine-protein kinase 2 (Homo sapiens, UniProt Q96PF2); assay: Inhibition of TSSK2
T3 sequence (Q96PF2 whole entry): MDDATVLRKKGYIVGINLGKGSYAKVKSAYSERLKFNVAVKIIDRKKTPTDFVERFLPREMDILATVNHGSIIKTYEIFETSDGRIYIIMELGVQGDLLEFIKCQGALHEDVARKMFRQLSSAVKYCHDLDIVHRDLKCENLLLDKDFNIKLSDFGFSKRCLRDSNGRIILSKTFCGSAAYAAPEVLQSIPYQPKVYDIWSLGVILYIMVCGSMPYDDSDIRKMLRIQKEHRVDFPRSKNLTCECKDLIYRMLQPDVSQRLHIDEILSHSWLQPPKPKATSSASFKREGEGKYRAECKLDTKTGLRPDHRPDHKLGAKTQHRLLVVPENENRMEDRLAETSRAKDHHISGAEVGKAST

[8] = AUC (0 to 24 hrs) in cynomolgus monkey at 30 mg/kg, po; format: ADME, organism-based, Macaca fascicularis; parameters: time < 24 hr, dose 30 mg/kg, route oral; details: plasma
[9] = AUC (0 to 6 hrs) in rat at 10 mg/kg, po; format: ADME, organism-based; parameters: time < 6 hr, dose 10 mg/kg, route oral; details: plasma
[10] = biological target: Casein kinase I isoform delta (Homo sapiens, UniProt P48730); assay: Inhibition of CSNK1D
[11] = biological target: T4, Serine/threonine-protein kinase Nek2 (Homo sapiens, UniProt P51955); assay: Inhibition of NEK2
T4 sequence (P51955 whole entry): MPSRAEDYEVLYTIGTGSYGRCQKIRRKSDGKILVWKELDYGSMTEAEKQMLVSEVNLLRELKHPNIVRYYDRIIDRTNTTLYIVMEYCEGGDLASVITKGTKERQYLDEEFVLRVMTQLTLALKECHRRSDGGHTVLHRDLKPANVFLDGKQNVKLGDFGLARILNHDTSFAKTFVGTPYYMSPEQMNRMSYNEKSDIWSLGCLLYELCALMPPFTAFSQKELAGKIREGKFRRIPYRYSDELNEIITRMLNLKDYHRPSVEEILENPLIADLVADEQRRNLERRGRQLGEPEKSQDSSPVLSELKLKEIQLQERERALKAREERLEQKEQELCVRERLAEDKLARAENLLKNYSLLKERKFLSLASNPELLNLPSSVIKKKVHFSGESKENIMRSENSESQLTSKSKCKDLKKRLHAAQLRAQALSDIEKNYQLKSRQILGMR

[12] = AUC (0 to 24 hrs) in Sprague-Dawley rat at 10 mg/kg, iv; format: ADME, organism-based; parameters: time < 24 hr, dose 10 mg/kg, route intravenous; details: plasma
[13] = Clearance in CD1 mouse at 3 mg/kg, iv; format: ADME, organism-based; parameters: dose 3 mg/kg, route intravenous; details: in vivo
[14] = AUC (0 to 24 hrs) in CD1 mouse at 3 mg/kg, iv; format: ADME, organism-based; parameters: time < 24 hr, dose 3 mg/kg, route intravenous; details: plasma
[15] = biological target: Serine/threonine-protein kinase Chk1 (Homo sapiens, UniProt O14757); assay: Inhibition of CHK1
[16] = biological target: Vascular endothelial growth factor receptor 2 (Homo sapiens, UniProt P35968); assay: Inhibition of KDR
[17] = Oral bioavailability in Sprague-Dawley rat at 30 mg/kg; format: ADME, organism-based; details: in vivo
[18] = Oral bioavailability in CD1 mouse at 50 mg/kg; format: ADME, organism-based; details: in vivo
[19] = biological target: Hepatocyte growth factor receptor (Homo sapiens, UniProt P08581); assay: Inhibition of MET
[20] = Clearance in Sprague-Dawley rat at 10 mg/kg, iv; format: ADME, organism-based; parameters: dose 10 mg/kg, route intravenous; details: in vivo

Chain of Hepatocyte growth factor receptor (P08581 whole entry): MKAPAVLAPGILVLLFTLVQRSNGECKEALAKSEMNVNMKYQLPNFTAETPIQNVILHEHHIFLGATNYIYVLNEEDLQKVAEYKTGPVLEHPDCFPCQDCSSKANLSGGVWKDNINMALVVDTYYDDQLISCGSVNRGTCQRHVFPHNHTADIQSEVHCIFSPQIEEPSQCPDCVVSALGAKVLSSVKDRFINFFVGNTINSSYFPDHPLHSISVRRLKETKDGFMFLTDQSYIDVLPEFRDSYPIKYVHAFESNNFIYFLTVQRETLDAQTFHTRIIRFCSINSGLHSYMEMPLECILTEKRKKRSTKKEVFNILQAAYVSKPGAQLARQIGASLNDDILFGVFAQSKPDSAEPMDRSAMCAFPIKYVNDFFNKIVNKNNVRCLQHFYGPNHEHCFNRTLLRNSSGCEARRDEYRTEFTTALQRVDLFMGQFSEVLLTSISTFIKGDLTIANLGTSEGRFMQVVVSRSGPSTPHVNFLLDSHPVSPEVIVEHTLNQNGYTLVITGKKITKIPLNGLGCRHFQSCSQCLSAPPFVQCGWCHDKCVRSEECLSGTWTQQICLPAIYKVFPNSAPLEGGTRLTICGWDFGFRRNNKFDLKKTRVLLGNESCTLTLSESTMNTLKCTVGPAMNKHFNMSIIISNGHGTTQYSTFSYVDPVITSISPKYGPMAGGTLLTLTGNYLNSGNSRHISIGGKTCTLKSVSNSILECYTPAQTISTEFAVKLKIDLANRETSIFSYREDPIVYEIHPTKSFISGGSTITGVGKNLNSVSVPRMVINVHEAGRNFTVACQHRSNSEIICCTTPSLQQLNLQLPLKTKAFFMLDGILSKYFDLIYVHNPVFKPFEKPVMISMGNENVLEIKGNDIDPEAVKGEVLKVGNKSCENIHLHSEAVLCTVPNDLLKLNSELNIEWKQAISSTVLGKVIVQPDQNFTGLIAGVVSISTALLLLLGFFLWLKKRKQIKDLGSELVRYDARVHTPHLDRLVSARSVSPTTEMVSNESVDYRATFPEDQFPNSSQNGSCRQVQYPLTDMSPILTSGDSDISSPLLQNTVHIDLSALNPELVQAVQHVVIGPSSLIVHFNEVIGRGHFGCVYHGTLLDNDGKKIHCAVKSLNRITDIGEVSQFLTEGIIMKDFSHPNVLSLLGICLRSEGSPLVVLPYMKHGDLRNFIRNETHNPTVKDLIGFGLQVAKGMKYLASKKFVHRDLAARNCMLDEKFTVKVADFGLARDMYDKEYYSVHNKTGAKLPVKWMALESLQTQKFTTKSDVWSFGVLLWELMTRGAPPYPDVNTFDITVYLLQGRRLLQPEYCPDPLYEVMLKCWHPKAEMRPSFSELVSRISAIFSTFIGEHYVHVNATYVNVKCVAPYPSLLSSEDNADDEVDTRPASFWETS
Chain of Casein kinase I isoform delta (P48730 whole entry, canonical isoform): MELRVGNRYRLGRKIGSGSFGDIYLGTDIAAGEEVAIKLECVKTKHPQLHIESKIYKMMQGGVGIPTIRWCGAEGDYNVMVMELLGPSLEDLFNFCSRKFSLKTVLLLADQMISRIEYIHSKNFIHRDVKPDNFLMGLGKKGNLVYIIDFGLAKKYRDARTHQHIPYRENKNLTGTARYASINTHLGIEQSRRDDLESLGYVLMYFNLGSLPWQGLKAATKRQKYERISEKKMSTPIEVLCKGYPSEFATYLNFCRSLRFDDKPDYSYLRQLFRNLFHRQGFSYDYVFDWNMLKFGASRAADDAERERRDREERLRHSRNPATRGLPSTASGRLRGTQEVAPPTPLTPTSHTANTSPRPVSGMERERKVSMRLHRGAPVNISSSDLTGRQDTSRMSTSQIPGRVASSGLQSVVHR
Chain of Vascular endothelial growth factor receptor 2 (P35968 whole entry): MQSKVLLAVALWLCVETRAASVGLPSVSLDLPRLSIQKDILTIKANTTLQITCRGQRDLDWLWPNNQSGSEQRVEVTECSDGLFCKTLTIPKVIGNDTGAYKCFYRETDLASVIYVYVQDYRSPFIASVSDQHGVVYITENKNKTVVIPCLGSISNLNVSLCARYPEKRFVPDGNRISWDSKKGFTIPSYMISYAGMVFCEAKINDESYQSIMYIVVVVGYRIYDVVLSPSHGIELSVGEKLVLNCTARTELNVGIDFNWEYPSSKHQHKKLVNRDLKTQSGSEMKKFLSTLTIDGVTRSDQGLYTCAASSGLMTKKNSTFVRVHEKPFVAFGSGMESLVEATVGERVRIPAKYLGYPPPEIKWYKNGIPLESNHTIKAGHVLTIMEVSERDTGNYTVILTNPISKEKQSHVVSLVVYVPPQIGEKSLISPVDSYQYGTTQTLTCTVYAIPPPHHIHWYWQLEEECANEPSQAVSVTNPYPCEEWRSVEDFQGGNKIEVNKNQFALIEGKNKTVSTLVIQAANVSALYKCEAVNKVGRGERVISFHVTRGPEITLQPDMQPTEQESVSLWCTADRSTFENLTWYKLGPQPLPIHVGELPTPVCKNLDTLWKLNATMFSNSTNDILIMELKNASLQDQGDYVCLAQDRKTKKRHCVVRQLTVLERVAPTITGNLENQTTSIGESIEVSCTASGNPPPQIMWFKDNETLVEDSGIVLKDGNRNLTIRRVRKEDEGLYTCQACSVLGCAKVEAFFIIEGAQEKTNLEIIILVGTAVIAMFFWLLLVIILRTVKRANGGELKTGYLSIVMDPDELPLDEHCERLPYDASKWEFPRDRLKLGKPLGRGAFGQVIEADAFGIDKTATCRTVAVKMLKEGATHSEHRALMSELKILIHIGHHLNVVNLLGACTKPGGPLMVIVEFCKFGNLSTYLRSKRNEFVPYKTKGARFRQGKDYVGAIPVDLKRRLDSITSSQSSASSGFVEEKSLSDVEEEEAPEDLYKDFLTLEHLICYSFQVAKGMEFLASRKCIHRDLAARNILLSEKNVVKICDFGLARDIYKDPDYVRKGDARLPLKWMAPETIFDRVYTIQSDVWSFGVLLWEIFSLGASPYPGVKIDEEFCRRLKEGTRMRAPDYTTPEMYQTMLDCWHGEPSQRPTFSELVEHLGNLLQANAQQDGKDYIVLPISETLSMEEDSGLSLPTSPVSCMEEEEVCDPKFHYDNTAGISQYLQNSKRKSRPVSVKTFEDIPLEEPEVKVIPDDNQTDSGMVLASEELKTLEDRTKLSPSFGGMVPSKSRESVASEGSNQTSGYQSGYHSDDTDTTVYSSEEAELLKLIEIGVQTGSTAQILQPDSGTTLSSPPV
Chain of Insulin-like growth factor 1 receptor (P08069 31-736 limits assumed): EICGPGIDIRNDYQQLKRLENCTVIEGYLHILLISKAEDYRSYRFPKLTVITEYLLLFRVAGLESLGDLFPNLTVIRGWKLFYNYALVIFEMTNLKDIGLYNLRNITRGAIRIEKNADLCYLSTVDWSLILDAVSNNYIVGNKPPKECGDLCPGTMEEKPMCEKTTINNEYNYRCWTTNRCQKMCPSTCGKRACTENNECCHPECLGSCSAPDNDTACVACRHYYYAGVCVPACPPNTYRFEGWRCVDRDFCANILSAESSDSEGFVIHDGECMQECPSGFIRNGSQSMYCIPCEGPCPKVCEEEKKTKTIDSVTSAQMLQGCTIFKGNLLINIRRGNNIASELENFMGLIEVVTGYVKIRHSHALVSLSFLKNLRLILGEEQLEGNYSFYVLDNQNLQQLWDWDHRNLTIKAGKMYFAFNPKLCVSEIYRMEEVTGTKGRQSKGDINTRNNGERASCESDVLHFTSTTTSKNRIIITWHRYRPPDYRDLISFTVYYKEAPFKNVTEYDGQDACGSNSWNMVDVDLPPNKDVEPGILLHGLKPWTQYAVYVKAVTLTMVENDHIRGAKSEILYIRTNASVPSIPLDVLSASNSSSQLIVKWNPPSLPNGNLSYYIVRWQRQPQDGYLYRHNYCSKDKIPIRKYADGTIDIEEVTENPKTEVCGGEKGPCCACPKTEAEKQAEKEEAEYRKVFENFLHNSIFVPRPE
Chain of Insulin-like growth factor 1 receptor (P08069 741-1367 limits assumed): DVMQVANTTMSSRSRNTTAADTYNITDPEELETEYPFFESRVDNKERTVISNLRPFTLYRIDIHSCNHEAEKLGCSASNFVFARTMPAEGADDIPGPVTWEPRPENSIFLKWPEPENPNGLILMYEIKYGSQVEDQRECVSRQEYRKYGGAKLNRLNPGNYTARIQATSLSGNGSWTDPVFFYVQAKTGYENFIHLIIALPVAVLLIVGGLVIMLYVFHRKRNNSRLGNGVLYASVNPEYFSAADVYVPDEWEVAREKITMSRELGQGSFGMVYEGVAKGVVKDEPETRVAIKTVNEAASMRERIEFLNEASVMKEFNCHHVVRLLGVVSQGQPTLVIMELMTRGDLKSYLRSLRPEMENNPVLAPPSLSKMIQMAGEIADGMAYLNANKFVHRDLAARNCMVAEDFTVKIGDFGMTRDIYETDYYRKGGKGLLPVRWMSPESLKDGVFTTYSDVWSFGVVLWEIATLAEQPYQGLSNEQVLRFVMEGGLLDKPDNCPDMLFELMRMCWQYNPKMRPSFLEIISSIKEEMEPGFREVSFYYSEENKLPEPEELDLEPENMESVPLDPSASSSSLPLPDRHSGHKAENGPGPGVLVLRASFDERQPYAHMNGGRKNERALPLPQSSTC
Chain of Serine/threonine-protein kinase Chk1 (O14757 whole entry): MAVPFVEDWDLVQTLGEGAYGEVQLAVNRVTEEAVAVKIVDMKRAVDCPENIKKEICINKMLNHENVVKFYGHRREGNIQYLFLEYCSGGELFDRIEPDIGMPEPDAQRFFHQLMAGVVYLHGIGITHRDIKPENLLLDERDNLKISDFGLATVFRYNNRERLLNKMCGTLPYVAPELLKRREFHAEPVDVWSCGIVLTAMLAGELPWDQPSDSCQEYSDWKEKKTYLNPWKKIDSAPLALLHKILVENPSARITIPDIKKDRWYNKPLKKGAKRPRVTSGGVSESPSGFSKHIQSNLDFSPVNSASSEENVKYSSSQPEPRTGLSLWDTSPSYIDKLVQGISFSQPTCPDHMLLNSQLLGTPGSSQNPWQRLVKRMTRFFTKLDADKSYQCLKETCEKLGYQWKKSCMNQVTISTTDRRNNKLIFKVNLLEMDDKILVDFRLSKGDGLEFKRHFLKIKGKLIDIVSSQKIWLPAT

| clearance [1] [mL/min/kg] | pIC50 [2] | AUC(0-t) at 24 h [3] [µM·h] | pIC50 [4] | pIC50 [5] | AUC(0-t) at 24 h [6] [µM·h] | pIC50 (Aurora kinase A) | pIC50 [7] | AUC(0-t) at 24 h [8] [µM·h] | AUC(0-t) at 6 h [9] [µM·h] | pIC50 [10] | pIC50 [11] | AUC(0-t) at 24 h [12] [µM·h] | clearance [13] [mL/min/kg] | AUC(0-t) at 24 h [14] [µM·h] | pIC50 [15] | pIC50 [16] | bioavailability [17] [%] | bioavailability [18] [%] | pIC50 [19] | also measured | Compound |
| --- | --- | --- | --- | --- | --- | --- | --- | --- | --- | --- | --- | --- | --- | --- | --- | --- | --- | --- | --- | --- | --- |
| 6.3 | < 7.00 | 62.1 | 7.34 | < 7.00 | 35.9 | ≥ 8.40 | < 7.00 | 5.1 | 4.73 | < 7.00 | < 7.00 | 63.3 | 20.3 | 5.9 | 6.70 | 6.47 | 33 | 37 | < 7.00 | clearance [20]: 6.3 mL/min/kg | Cl.[2H]C([2H])(c1cc(Nc2nc(C)cn3c(-c4cn[nH]c4)cnc23)sn1)N1CCC(F)(F)C1 |
| – | < 7.00 | – | 8.30 | < 7.00 | – | ≥ 8.40 | < 7.00 | – | – | < 7.00 | < 7.00 | – | – | – | – | > 9.00 | – | – | < 7.00 | – | CCN(Cc1cc(Nc2nc(C)cn3c(-c4cn[nH]c4)cnc23)sn1)C(C)(C)CO |
| 33 | < 7.00 | 6.9 | 7.12 | < 7.00 | 9.4 | ≥ 8.40 | < 7.00 | 1.7 | 1.61 | < 7.00 | < 7.00 | 12.2 | 127 | 0.9 | 6.19 | 6.26 | 19 | 60 | < 7.00 | clearance [20]: 33 mL/min/kg | Cc1cn2c(-c3cn[nH]c3)cnc2c(Nc2cc(CN3CCC(F)(F)C3)ns2)n1.Cl |
